Like-named read-outs stand apart in the source and are kept apart here.
Target: T1, V600E full-length B-Raf (Homo sapiens, UniProt P15056, V600E)
T1 construct: 1 μM FSBA-MEK and 20 nM V600E full-length B-Raf; made in house; host or cells: sf9 insect cells (baculovirus)
Assay: B-Raf IC50 Assay (B-RAF V600E inhibition assay, Example A)
Format: biochemical
Procedure, shortened: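 Full-length V600E B-Raf (20 nM, from Sf9 baculovirus) was preincubated 15 min with 1 μM FSBA-modified wild-type MEK in pH 7.2 Pipes/KCl/MgCl2 buffer, then started with 4 μM ATP plus [γ-33P]ATP. After 60 min at 22 °C, TCA-quenched product was filter-captured and 33P incorporation counted by scintillation.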

[1] = B-Raf V600E assay of Example A: less than 100 nM, read-out: IC50
[2] = B-Raf V600E assay of Example A: less than about 1 μM, read-out: IC50
[3] = incorporation of radio labeled phosphate from [γ-33P]ATP into FSBA-modified wild-type MEK, 4 μM ATP, 20 nM V600E full-length B-Raf, 60-minute incubation, 22° C., read-out: BRAF V600E IC50

T1 sequence (P15056 whole entry V600E): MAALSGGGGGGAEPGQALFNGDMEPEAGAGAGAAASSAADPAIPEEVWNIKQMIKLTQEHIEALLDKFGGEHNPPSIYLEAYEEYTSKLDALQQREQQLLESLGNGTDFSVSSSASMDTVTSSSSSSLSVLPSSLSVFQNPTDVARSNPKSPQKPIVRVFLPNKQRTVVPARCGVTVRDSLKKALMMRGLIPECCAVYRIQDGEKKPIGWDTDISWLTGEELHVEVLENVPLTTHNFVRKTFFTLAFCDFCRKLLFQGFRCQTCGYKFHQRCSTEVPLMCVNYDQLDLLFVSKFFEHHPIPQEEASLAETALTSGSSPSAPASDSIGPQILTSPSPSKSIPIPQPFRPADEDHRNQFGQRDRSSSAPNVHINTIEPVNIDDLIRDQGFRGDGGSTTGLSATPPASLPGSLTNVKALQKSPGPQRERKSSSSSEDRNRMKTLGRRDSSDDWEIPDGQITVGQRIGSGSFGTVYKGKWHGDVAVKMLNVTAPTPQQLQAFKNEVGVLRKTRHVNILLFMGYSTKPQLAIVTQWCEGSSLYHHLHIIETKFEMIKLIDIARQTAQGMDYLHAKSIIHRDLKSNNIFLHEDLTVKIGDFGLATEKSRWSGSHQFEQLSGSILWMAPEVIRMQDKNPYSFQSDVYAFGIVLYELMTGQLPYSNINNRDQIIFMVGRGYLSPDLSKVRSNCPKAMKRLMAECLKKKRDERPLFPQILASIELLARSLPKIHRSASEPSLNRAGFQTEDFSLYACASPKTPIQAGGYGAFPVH

Compound | IC50 [1] [µM] | IC50 [2] [µM] | IC50 [3] [µM]
CCCS(=O)(=O)Nc1cc(Cl)cc(NC(=O)c2csc3c(N)ncnc23)c1F [Example 21, 4-Amino-thieno[3,2-d] pyrimidine-7-carboxylic acid [5-chloro-2-fluoro-3-(propane-1-sulfonyl-amino)-phenyl]-amide] | < 0.1 | < 1 | 0.0471
CCCS(=O)(=O)Nc1ccc(F)c(NC(=O)c2cn(C)c3c(N)ncnc23)c1F [Example 1, 4-amino-5-methyl-pyrrolo[3,2-d]pyrimidine-7-carboxylic acid[2,6-difluoro-3-(propane-1-sulfonylamino)-phenyl]-amide] | < 0.1 | < 1 | 0.0184
O=C(Nc1c(F)ccc(NS(=O)(=O)CCCF)c1F)c1csc2cncnc12 [Example 109, Thieno[3,2-d]pyrimidine-7-carboxylic acid [2,6-difluoro-3-(3-fluoro-propane-1-sulfonyl-amino)-phenyl]-amide] | < 0.1 | < 1 | 0.0403
CCCS(=O)(=O)Nc1ccc(F)c(NC(=O)c2csc3c(NCC(C)C)ncnc23)c1F [Example 57, 4-Isobutylamino-thieno[3,2-d] pyrimidine-7-carboxylic acid [2,6-difluoro-3-(propane-1-sulfonylamino)-phenyl]-amide] | < 0.1 | < 1 | 0.0128
CCCS(=O)(=O)Nc1ccc(F)c(NC(=O)c2snc3c(NCC)ncnc23)c1F [Example 35, 7-Ethylamino-isothiazolo[4,3-d]pyrimidine-3-carboxylic acid [2,6-difluoro-3-(propane-1-sulfonylamino)-phenyl]-amide] |  | < 1 | 0.105
Nc1ncnc2c(C(=O)Nc3c(F)ccc(NS(=O)(=O)c4ccco4)c3F)csc12 [Example 12, 4-Amino-thieno[3,2-d]pyrimidine-7-carboxylic acid[2,6-difluoro-3-(furan-2-sulfonylamino)-phenyl]-amide] | < 0.1 | < 1 | 0.00022
CCCS(=O)(=O)Nc1ccc(Cl)c(NC(=O)c2csc3c(NC4CCOC4)ncnc23)c1Cl (stereo not shown) [Example 71, 4-(Tetrahydro-furan-3-ylamino)-thieno[3,2-d] pyrimidine-7-carboxylic acid [2,6-dichloro-3-(propane-1-sulfonyl-amino)phenyl]-amid] | < 0.1 | < 1 | 0.0144
CCCS(=O)(=O)Nc1ccc(F)c(NC(=O)c2snc3c(NC4CC4)ncnc23)c1F [Example 36, 7-(Cyclopropylamino)-N-(2,6-difluoro-3-(propylsulfonamido)phenyl)isothiazolo[4,3-d]pyrimidine-3-carboxamide] |  | < 1 | 0.194
CCCS(=O)(=O)Nc1ccc(Cl)c(NC(=O)c2csc3c(NN4CCOCC4)ncnc23)c1Cl [Example 67, 4-(Morpholin-4-ylamino)-thieno[3,2-d] pyrimidine-7-carboxylic acid [2,6-dichloro-3-(propane-1-sulfonyl-amino)-phenyl]-amide] | < 0.1 | < 1 | 0.0002
CCCS(=O)(=O)Nc1ccc(F)c(NC(=O)c2csc3c(NCCOC)ncnc23)c1F [Example 60, 4-(2-Methoxy-ethylamino)-thieno[3,2-d] pyrimidine-7-carboxylic acid [2,6-difluoro-3-(propane-1-sulfonylamino)-phenyl]-amide] |  | < 1 | 0.177
CCCS(=O)(=O)Nc1cc(F)c(F)c(NC(=O)c2csc3c(NCC)ncnc23)c1F [Example 85, 4-Ethylamino-thieno[3,2-d] pyrimidine-7-carboxylic acid [2,3,6-trifluoro-5-(propane-1-sulfonyl-amino)-phenyl]-amide] | < 0.1 | < 1 | 0.0051
Nc1ncnc2c(C(=O)Nc3c(F)ccc(NS(=O)(=O)CC4CC4)c3Cl)csc12 [Example 16, 4-Amino-thieno[3,2-d] pyrimidine-7-carboxylic acid (2-chloro-3-cycloprop-ylmethanesulfonyl-amino-6-fluoro-phenyl)-amide] | < 0.1 | < 1 | 0.0019
CCCS(=O)(=O)Nc1ccc(Cl)c(NC(=O)c2csc3c(NCC(F)F)ncnc23)c1Cl [Example 69, 4-(2,2-Difluoro-ethylamino)-thieno[3,2-d] pyrimidine-7-carboxylic acid [2,6-dichloro-3-(propane-1-sulfonyl-amino)-phenyl]-amide] | < 0.1 | < 1 | 0.0022
CCCS(=O)(=O)Nc1ccc(Cl)c(NC(=O)c2csc3c(NC4COC4)ncnc23)c1Cl [Example 68, 4-(Oxetan-3-ylamino)-thieno[3,2-d] pyrimidine-7-carboxylic acid [2,6-dichloro-3-(propane-1-sulfonyl-amino)-phenyl]-amide] | < 0.1 | < 1 | 0.0018
CCCS(=O)(=O)Nc1cccc(NC(=O)c2csc3c(N)ncnc23)c1F [Example 26, 4-Amino-thieno[3,2-d]pyrimidine-7-carboxylic acid[2-fluoro-3-(propane-1-sulfonylamino)-phenyl]-amide] | < 0.1 | < 1 | 0.02
CCCS(=O)(=O)Nc1ccc(Cl)c(NC(=O)c2csc3c(N)ncnc23)c1Cl [Example 9, 4-Amino-thieno[3,2-d]pyrimidine-7-carboxylic acid[2,6-dichloro-3-(propane-1-sulfonylamino)-phenyl]-amide] | < 0.1 | < 1 | 0.0001
CCCS(=O)(=O)Nc1ccc(Cl)c(NC(=O)c2csc3c(NC4CC4)ncnc23)c1Cl [Example 66, 4-Cyclopropylamino-thieno[3,2-d]pyrimidine-7-carboxylic acid [2,6-dichloro-3-(propane-1-sulfonylamino)-phenyl]-amide] | < 0.1 | < 1 | 0.0002
CC(C)CS(=O)(=O)Nc1ccc(F)c(NC(=O)c2csc3c(N)ncnc23)c1Cl [Example 8, 4-Amino-thieno[3,2-d]pyrimidine-7-carboxylic acid[2-chloro-6-fluoro-3-(2-methyl-propane-1-sulfonylamino)-phenyl]-amide] | < 0.1 | < 1 | 0.0006
CCCS(=O)(=O)Nc1ccc(F)c(NC(=O)c2csc3c(N)ncnc23)c1F [Example 6, 4-Amino-thieno[3,2-d] pyrimidine-7-carboxylic acid [2,6-difluoro-3-(propane-1-sulfonylamino)-phenyl]-amide] | < 0.1 | < 1 | 0.00289
CCCS(=O)(=O)Nc1cc(F)c(F)c(NC(=O)c2csc3c(NC(C)C)ncnc23)c1F [Example 91, 4-Isopropyl-amino-thieno [3,2-d] pyrimidine-7-carboxylic acid [2,3,6-trifluoro-5-(propane-1-sulfonyl-amino)-phenyl]-amide] | < 0.1 | < 1 | 0.0279
O=C(Nc1c(Cl)ccc(NS(=O)(=O)CCCF)c1Cl)c1csc2c(NC3CC3)ncnc12 [Example 82, 4-Cyclopropyl-amino-thieno [3,2-d] pyrimidine-7-carboxylic acid [2,6-dichloro-3-(3-fluoro-propane-1-sulfonyl-amino)-phenyl]-amide] | < 0.1 | < 1 | 0.00013
Nc1ncnc2c(C(=O)Nc3c(F)ccc(NS(=O)(=O)CCCF)c3Cl)csc12 [Example 15, 4-Amino-thieno[3,2-d] pyrimidine-7-carboxylic acid [2-chloro-6-fluoro-3-(3-fluoro-propane-1-sulfonylamino)-phenyl]-amide] | < 0.1 | < 1 | 0.0002
CCS(=O)(=O)Nc1ccc(F)c(NC(=O)c2csc3c(N)ncnc23)c1Cl [Example 4, 4-Amino-thieno[3,2-d] pyrimidine-7-carboxylic acid (2-chloro-3-ethane-sulfonylamino-6-fluoro-phenyl)-amide] | < 0.1 | < 1 | 0.00425
CCCS(=O)(=O)Nc1ccc(F)c(NC(=O)c2nsc3c(N)ncnc23)c1F [Example 30, 7-Amino-isothiazolo[4,5-d]pyrimidine-3-carboxylic acid [2,6-difluoro-3-(propane-1-sulfonylamino)-phenyl]-amide] | < 0.1 | < 1 | 0.0012
Nc1ncnc2c(C(=O)Nc3c(F)ccc(NS(=O)(=O)CCCF)c3F)nsc12 [Example 31, 7-Amino-isothiazolo[4,5-d]pyrimidine-3-carboxylic acid [2,6-difluoro-3-(3-fluoro-propane-1-sulfonylamino)-phenyl]-amide] | < 0.1 | < 1 | 0.00082
CCCS(=O)(=O)Nc1ccc(F)c(NC(=O)c2csc3c(NCC)ncnc23)c1F [Example 48, 4-Ethylamino-thieno[3,2-d] pyrimidine-7-carboxylic acid [2,6-difluoro-3-(propane-1-sulfonylamino)-phenyl]-amide] | < 0.1 | < 1 | 0.0114
CCCS(=O)(=O)Nc1ccc(F)c(NC(=O)c2c[nH]c3cncnc23)c1F [Example 113, 5H-Pyrrolo[3,2-d] pyrimidine-7-carboxylic acid [2,6-difluoro-3-(propane-1-sulfonylamino)-phenyl]-amide] |  | < 1 | 0.353
CCCS(=O)(=O)Nc1ccc(Cl)c(NC(=O)c2csc3c(NC4CCCCC4)ncnc23)c1Cl [Example 81, 4-Cyclohexyl-amino-thieno [3,2-d] pyrimidine-7-carboxylic acid [2,6-dichloro-3-(propane-1-sulfonyl-amino)-phenyl]-amide] |  | < 1 | 0.11

Source: patent US20120157439A1, “RAF INHIBITOR COMPOUNDS AND METHODS OF USE THEREOF” (GENENTECH, INC., priority 2009, published 2012)
